Several values for one entry are separate records, joined by “and”; a condition that tells them apart may be missing. Identical values can stand only once. Activity calls are given as the source filed them.
Key:
[1] = target: T1, DNA dC->dU-editing enzyme APOBEC-3A (Homo sapiens, UniProt P31941); assay: SAR analysis of small molecule inhibitors of APOBEC3A DNA Deaminase via a fluorescence-based single-stranded DNA deaminase assay - Set 2.; type: functional; conditions: read-out: IC50_Mean
[2] = target: T2, DNA dC->dU-editing enzyme APOBEC-3G (Homo sapiens, UniProt Q9HC16); type: functional
[3] = inhibitors of firefly luciferase expression or activity, dose response, H4 neuroglioma cells, luminescence (AID 1990); type: functional, cell-based
INS1 = assay: beta cell apoptosis inhibitors, cytokine rescue, dose response, luminescence, retest (AID 449756); type: functional, cell-based; conditions: Rattus norvegicus;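 further: cell death triggered by IL-1 beta plus TNF-alpha plus IFN-gamma mixture; protective hits raise ATP signal compared with cytokine alone wells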
Beta-lactamase [4] = target: Beta-lactamase (Salmonella choleraesuis (strain SC-B67), UniProt Q5J463)
[5] = cytotoxicity toward NIH3T3 fibroblasts, dose response, counter-screen, cell-based, ATP luminescence, mouse fibroblasts (AID 2010); type: functional;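 further: cells exposed to compound for about 90 hours before reading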
[6] = inhibitors of SNCA 5'UTR-driven reporter translation, confirmation, H4 neuroglioma cells, luminescence (AID 1988); type: functional, cell-based
[7] = inhibitors of intracellular T. cruzi replication, confirmation, NIH3T3 host cells, beta-gal luminescence (AID 2044); type: functional, cell-based;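 further: intracellular parasites grown in NIH/3T3 mouse fibroblasts as host cells; luminescent beta-galactosidase reporter signal from transgenic T. cruzi replicating inside host cells; inhibitors lower the luminescence signal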
[8] = Luminescence Cell-Based Dose Response HTS to Identify Inhibitors of 5'UTR Stem-Loop Driven Prion Protein mRNA Translation in H4 Neuroglioblastoma Cells. [Related pubchem assays: 1827 (Project Summary), 1813 (Primary HTS)]; type: functional
[9] = target: T2, DNA dC->dU-editing enzyme APOBEC-3G; assay: APOBEC3G deaminase inhibitors, SAR follow-up, biochemical, fluorescence, single-stranded DNA substrate (AID 602136); type: functional; conditions: read-out: IC50_Mean
[10] = target: T2, DNA dC->dU-editing enzyme APOBEC-3G; assay: SAR analysis of small molecule inhibitors of APOBEC3G DNA Deaminase via a fluorescence-based single-stranded DNA deaminase assay - Set 2.; type: functional; conditions: read-out: IC50_Mean
[11] = target: FAD-linked sulfhydryl oxidase ALR (Homo sapiens, UniProt P55789); assay: inhibitors of human ALR sulfhydryl oxidase, dose response, biochemical, H2O2 detection, luminescence, cherry-pick (AID 493248)
[12] = target: T1, DNA dC->dU-editing enzyme APOBEC-3A; assay: SAR analysis of small molecule inhibitors of APOBEC3A DNA Deaminase via a fluorescence-based single-stranded DNA deaminase assay.; type: functional; conditions: read-out: IC50_Mean
[13] = target: T1, DNA dC->dU-editing enzyme APOBEC-3A; assay: Dose Response confirmation of small molecule APOBEC3A DNA Deaminase Inhibitors via a fluorescence-based single-stranded DNA deaminase assay. [Related pubchem assays (depositor defined):AID493011, AID493024]; type: functional
Beta-lactamase [14] = target: Beta-lactamase (Pseudomonas aeruginosa, UniProt Q79MP6);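 further: biochemical dose-response test of metallo-beta-lactamase enzyme inhibition, read out by epi-absorbance; purified recombinant IMP-1 metallo-beta-lactamase with nitrocefin as substrate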
Cytochrome P450 2C19 = Cytochrome P450 2C19 (Homo sapiens, UniProt P33261); assay: Cytochrome panel assay with activity outcomes. Panel member name: p450-cyp2c19 Compounds with AC50 equal or less than 10 uM are considered active; type: functional; conditions: read-out: AC50
[15] = target: T3, Glycogen synthase kinase-3 alpha (Homo sapiens, UniProt P49840); assay: human GSK3 alpha kinase inhibition, dose response, selectivity assay for GSK3beta inhibitor project, biochemical, microfluidics, dry powder samples, set 2 (AID 623978); type: functional
Cytochrome P450 2C9 = Cytochrome P450 2C9 (Homo sapiens, UniProt P11712)
[16] = target: T4, Glycogen synthase kinase-3 beta (Homo sapiens, UniProt P49841); assay: GSK3beta kinase inhibitors, dose response, biochemical, microfluidics, dry powder samples, set 2 (AID 623989); type: functional
[17] = target: Mitogen-activated protein kinase kinase kinase kinase 4 (Homo sapiens, UniProt O95819); type: functional
[18] = target: Serine/threonine-protein kinase N2 (Homo sapiens, UniProt Q16513); type: functional
[19] = target: Calcium/calmodulin-dependent protein kinase type II subunit alpha (Homo sapiens, UniProt Q9UQM7); assay: Navigating the Kinome. Panel member name: CAMK2A; type: functional
[20] = target: Ribosomal protein S6 kinase alpha-3 (Homo sapiens, UniProt P51812); type: functional;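 further: measured within a kinome-wide profiling panel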
[21] = target: Mast/stem cell growth factor receptor Kit (Homo sapiens, UniProt P10721); type: functional;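 further: KIT entry within a kinase panel assay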
Focal adhesion kinase 1 = Focal adhesion kinase 1 (Homo sapiens, UniProt Q05397); type: functional;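 further: measured as one member of a kinome panel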
[22] = target: Tyrosine-protein kinase JAK3 (Homo sapiens, UniProt P52333); type: functional
[23] = target: BDNF/NT-3 growth factors receptor (Homo sapiens, UniProt Q16620); type: functional;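 further: NTRK2 measured as one member of a broad kinome-wide kinase profiling panel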
[24] = target: Serine/threonine-protein kinase TAO1 (Homo sapiens, UniProt Q7L7X3); type: functional
[25] = target: T4, Glycogen synthase kinase-3 beta; type: functional
[26] = target: Death-associated protein kinase 3 (Homo sapiens, UniProt O43293); type: functional;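 further: measured as one member of a kinome-wide profiling panel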
[27] = target: Cyclin-dependent kinase 8 (Homo sapiens, UniProt P49336); assay: Navigating the Kinome. Panel member name: CDK8; type: functional
[28] = target: Mitogen-activated protein kinase 8 (Homo sapiens, UniProt P45983); type: functional;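 further: value comes from one member of a kinome-wide kinase profiling panel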
[29] = target: Fibroblast growth factor receptor 1 (Homo sapiens, UniProt P11362); type: functional
[30] = target: Dual specificity protein kinase CLK2 (Homo sapiens, UniProt P49760); type: functional
[31] = target: Tyrosine-protein kinase BTK (Homo sapiens, UniProt Q06187); type: functional
[32] = target: Tyrosine-protein kinase Fyn (Homo sapiens, UniProt P06241); type: functional
[33] = target: Serine/threonine-protein kinase D3 (Homo sapiens, UniProt O94806); type: functional;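 further: determined within a kinase panel screen, with PRKCN as the panel member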
[34] = target: ALK tyrosine kinase receptor (Homo sapiens, UniProt Q9UM73); type: functional;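 further: ALK tested as one member of a kinase panel screen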
[35] = target: Mitogen-activated protein kinase 14 (Homo sapiens, UniProt Q16539); type: functional;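 further: part of a kinome-wide panel, MAPK14 entry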
[36] = target: Mitogen-activated protein kinase 9 (Homo sapiens, UniProt P45984); type: functional;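 further: value from a kinome panel profiling assay, MAPK9 panel entry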
[37] = target: Casein kinase I isoform alpha (Homo sapiens, UniProt P48729); type: functional
Activated CDC42 kinase 1 = Activated CDC42 kinase 1 (Homo sapiens, UniProt Q07912); assay: Navigating the Kinome. Panel member name: ACK1; type: functional
[38] = target: Inhibitor of nuclear factor kappa-B kinase subunit epsilon (Homo sapiens, UniProt Q14164); assay: Navigating the Kinome. Panel member name: IKBKE; type: functional
[39] = target: Mitogen-activated protein kinase kinase kinase kinase 5 (Homo sapiens, UniProt Q9Y4K4); type: functional;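 further: measured as one member of a kinome-spanning kinase panel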
[40] = target: G protein-coupled receptor kinase 5 (Homo sapiens, UniProt P34947); assay: Navigating the Kinome. Panel member name: GPRK5; type: functional
[41] = target: Macrophage-stimulating protein receptor (Homo sapiens, UniProt Q04912); assay: Navigating the Kinome. Panel member name: MST1R; type: functional
[42] = target: Tyrosine-protein kinase ABL1 (Homo sapiens, UniProt P00519); type: functional
[43] = target: Serine/threonine-protein kinase pim-1 (Homo sapiens, UniProt P11309); type: functional
[44] = target: Vascular endothelial growth factor receptor 1 (Homo sapiens, UniProt P17948); type: functional;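 further: measured within a kinome-wide profiling panel, FLT1 as the panel member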
[45] = target: Tyrosine-protein kinase Lck (Homo sapiens, UniProt P06239); type: functional;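 further: lck was assayed as one member of a kinase panel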
[46] = target: T3, Glycogen synthase kinase-3 alpha; type: functional
[47] = target: Cell division cycle 7-related protein kinase (Homo sapiens, UniProt O00311); type: functional;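 further: value obtained from a kinome-wide kinase panel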
[48] = target: Interleukin-1 receptor-associated kinase 4 (Homo sapiens, UniProt Q9NWZ3); type: functional
[49] = target: Dual specificity protein kinase CLK4 (Homo sapiens, UniProt Q9HAZ1); type: functional
[50] = target: cAMP-dependent protein kinase catalytic subunit alpha (Homo sapiens, UniProt P17612); type: functional
[51] = target: Homeodomain-interacting protein kinase 2 (Homo sapiens, UniProt Q9H2X6); type: functional;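 further: measured within a kinome-wide kinase profiling panel, HIPK2 being one panel member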
[52] = target: T5, Neuropeptides B/W receptor type 1 (Homo sapiens, UniProt P48145); assay: GPR7 antagonist potency, late-stage follow-up, cell-based, fluorescence, dose response, set 5 (AID 588566); type: functional
T5 sequence (P48145 whole entry): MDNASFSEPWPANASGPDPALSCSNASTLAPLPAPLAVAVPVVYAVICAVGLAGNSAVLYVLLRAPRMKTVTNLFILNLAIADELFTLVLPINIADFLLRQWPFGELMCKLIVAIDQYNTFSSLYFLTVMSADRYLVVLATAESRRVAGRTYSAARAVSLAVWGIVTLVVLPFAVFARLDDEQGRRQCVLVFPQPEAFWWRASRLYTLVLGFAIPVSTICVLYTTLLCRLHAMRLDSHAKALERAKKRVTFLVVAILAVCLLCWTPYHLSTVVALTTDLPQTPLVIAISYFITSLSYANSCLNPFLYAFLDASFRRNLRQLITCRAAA

[53] = target: Melanin-concentrating hormone receptor 1 (Homo sapiens, UniProt Q99705); assay: Late-stage fluorescence-based counterscreen for antagonists of the G-protein coupled receptor 7 (GPR7): cell-based dose response assay to identify antagonists of the melanin-concentrating hormone receptor 1 (MCHR1) Set 5.; type: functional

T2 sequence (Q9HC16 whole entry): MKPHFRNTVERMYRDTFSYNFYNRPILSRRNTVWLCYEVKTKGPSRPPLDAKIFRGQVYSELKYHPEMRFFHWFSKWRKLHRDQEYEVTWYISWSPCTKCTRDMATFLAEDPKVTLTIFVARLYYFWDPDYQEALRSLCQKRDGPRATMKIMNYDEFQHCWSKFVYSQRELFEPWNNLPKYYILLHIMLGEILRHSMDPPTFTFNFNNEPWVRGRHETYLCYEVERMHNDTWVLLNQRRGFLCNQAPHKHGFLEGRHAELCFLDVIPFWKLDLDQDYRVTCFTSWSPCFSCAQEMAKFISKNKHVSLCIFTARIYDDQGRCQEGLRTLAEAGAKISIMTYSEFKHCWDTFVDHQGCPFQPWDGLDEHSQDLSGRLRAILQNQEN
T1 sequence (P31941 whole entry): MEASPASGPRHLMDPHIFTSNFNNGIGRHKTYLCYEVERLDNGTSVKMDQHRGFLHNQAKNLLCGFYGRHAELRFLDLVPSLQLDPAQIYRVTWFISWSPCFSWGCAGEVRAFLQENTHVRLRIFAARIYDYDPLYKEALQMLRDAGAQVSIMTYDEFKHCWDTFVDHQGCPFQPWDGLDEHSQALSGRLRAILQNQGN
T4 sequence (P49841 whole entry): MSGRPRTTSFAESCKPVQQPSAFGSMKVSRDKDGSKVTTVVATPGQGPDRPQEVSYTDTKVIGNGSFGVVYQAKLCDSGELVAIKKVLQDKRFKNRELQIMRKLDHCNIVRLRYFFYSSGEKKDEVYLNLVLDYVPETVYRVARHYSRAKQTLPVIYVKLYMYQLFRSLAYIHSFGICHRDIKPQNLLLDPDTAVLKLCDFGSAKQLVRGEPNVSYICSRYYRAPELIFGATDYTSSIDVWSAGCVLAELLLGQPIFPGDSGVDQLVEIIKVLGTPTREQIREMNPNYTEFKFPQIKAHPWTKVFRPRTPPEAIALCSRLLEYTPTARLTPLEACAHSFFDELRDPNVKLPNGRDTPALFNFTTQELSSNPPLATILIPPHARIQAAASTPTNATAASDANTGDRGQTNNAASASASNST
Sequence of Mitogen-activated protein kinase 14 (Q16539 whole entry): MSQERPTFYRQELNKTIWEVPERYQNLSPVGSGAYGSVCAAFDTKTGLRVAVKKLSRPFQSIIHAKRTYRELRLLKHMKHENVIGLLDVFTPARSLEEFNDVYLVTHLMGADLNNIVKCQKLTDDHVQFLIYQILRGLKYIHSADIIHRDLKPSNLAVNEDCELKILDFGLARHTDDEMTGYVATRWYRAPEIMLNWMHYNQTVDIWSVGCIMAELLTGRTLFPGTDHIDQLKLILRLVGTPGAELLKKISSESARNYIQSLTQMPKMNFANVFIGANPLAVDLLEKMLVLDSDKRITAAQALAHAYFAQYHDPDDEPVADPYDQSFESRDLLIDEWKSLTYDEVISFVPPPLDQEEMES
Sequence of Focal adhesion kinase 1 (Q05397 whole entry): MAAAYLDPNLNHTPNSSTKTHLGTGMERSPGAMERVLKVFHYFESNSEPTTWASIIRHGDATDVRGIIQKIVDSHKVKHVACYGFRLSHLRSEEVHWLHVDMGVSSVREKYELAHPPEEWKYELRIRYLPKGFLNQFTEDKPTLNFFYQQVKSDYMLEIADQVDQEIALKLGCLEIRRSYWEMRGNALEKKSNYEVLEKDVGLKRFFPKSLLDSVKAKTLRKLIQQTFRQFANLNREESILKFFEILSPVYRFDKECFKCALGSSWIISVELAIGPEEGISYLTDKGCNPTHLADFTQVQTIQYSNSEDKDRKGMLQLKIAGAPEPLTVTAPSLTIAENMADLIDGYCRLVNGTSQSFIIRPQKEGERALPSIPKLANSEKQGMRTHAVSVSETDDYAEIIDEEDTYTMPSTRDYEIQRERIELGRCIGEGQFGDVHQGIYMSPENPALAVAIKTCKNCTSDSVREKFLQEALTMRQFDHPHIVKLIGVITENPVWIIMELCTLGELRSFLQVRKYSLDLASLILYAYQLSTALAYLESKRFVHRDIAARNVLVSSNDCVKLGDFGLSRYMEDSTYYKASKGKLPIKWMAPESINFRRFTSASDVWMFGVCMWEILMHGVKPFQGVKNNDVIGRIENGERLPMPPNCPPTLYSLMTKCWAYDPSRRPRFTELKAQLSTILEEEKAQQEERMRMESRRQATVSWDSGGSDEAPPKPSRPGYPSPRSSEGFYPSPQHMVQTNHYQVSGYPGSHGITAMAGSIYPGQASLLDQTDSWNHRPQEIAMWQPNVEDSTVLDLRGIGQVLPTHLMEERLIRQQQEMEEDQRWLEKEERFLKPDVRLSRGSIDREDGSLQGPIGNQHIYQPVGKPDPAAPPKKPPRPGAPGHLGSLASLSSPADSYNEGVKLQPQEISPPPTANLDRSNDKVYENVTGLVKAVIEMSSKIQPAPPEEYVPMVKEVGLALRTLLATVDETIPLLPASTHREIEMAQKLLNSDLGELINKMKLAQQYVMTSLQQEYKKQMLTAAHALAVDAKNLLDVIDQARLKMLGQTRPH
T3 sequence (P49840 whole entry): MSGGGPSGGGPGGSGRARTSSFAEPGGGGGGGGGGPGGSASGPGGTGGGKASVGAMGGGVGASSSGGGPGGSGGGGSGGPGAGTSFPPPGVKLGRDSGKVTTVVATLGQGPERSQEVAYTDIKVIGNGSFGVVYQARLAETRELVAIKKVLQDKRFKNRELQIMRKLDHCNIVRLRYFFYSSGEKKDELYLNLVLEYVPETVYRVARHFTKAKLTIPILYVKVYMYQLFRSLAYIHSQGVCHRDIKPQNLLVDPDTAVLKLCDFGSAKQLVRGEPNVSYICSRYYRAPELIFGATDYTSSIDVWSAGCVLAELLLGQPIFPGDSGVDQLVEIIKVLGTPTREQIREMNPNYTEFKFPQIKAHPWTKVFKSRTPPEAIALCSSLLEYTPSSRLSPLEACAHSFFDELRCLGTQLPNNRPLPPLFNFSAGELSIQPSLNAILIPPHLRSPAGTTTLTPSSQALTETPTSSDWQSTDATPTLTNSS
Sequence of Serine/threonine-protein kinase pim-1 (P11309 whole entry): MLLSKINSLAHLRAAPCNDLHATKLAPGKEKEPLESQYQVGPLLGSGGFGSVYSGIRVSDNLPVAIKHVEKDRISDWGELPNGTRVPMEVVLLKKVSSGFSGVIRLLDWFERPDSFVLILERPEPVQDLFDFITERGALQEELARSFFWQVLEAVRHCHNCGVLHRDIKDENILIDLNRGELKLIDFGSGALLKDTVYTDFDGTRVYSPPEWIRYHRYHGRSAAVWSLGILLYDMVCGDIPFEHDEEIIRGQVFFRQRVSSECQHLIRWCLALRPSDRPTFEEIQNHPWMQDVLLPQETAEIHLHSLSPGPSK
Sequence of Mitogen-activated protein kinase kinase kinase kinase 4 (O95819 whole entry): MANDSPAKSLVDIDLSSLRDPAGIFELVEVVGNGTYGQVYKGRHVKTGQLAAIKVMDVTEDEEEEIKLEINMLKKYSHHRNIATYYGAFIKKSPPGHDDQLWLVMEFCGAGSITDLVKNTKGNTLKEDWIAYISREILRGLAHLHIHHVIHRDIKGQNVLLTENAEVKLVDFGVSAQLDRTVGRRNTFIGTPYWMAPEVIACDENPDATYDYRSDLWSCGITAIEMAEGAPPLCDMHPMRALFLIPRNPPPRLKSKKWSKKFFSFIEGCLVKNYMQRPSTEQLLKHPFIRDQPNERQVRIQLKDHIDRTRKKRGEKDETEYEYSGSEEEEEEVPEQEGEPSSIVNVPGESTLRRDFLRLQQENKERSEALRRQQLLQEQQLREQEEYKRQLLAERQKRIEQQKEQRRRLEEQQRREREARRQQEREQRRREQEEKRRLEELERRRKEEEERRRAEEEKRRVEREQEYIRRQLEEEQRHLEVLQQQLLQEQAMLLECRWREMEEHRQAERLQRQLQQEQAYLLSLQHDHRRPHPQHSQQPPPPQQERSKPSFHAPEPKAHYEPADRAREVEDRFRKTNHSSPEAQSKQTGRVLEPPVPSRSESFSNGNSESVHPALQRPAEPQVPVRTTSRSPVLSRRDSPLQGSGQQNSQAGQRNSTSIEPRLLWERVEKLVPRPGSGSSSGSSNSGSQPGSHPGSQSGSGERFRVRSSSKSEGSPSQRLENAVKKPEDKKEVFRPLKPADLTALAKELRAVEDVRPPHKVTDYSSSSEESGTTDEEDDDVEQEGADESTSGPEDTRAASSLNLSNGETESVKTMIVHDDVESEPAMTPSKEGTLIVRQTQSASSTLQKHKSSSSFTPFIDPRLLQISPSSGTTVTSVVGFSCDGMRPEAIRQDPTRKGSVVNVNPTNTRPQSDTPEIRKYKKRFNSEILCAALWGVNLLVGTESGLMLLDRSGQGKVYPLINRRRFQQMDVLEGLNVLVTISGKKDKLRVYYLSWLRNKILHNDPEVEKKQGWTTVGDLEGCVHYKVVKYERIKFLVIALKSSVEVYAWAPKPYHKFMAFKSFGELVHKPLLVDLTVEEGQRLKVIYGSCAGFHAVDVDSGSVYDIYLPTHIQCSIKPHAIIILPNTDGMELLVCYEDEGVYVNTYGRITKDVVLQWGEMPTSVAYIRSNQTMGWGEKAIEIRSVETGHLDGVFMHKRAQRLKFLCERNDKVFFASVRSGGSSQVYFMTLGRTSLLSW
Sequence of Dual specificity protein kinase CLK2 (P49760 whole entry): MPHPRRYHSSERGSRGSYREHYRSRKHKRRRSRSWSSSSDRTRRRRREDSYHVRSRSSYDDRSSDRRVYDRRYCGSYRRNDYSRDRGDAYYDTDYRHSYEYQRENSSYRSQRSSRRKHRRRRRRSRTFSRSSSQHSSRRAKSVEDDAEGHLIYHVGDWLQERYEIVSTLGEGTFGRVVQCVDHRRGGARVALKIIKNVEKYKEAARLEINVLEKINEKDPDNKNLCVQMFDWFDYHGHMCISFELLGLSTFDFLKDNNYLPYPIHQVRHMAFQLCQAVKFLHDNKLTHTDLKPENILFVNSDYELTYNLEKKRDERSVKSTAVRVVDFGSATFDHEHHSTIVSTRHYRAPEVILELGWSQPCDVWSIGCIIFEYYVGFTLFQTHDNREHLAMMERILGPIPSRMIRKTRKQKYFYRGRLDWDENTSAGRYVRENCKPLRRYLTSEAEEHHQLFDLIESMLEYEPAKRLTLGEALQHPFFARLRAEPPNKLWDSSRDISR

Cc1ccc2[nH]cc(/C=C/c3cc[n+](C)cc3)c2c1
> 60 µM (not active): EC50 [5]
inactive: IC50 [1] > 99 µM | IC50 [2] > 100 µM | IC50 (Beta-lactamase [4]) 49.2 µM | IC50 [9] > 99 µM | IC50 [10] > 99 µM | IC50 [12] > 99 µM | IC50 (Beta-lactamase [14]) > 59.6 µM
active: EC50 [3] 9.85 µM | AC50 (INS1) 4.88 µM | EC50 [6] 12.2 µM | EC50 [7] 1.43 µM | EC50 [8] 13.6 µM | AC50 [11] 1.49 µM | IC50 [13] 3.49 µM

COC(=O)C(C)Sc1ccc2nnc(-c3ccc(F)cc3)n2n1 (stereo unspecified)
inconclusive: AC50 (Cytochrome P450 2C19) 39.8 µM | AC50 (Cytochrome P450 2C9) 3.55 µM
active: AC50 [15] 5.24 µM | AC50 [16] 1.24 µM

CC(C)C(CO)NC(=O)c1cccc(-n2nc(C(C)(C)C)cc2NC(=O)Nc2cccc3ccccc23)c1 (stereo unspecified)
inactive: Ki [17] > 5.01 µM | Ki [19] > 7.94 µM | Ki [20] > 3.98 µM | Ki [21] > 3.98 µM | Ki (Focal adhesion kinase 1) > 6.31 µM and > 5.01 µM | Ki [22] > 5.01 µM | Ki [23] > 3.98 µM | Ki [24] > 6.31 µM | Ki [25] > 3.98 µM | Ki [26] > 5.01 µM | Ki [28] > 5.01 µM | Ki [29] > 3.98 µM | Ki [30] > 3.98 µM | Ki [31] > 6.31 µM | Ki [32] > 6.31 µM | Ki [33] > 3.98 µM | Ki [34] > 6.31 µM | Ki [37] > 3.98 µM | Ki (Activated CDC42 kinase 1) > 3.98 µM | Ki [38] > 3.16 µM | Ki [39] > 3.98 µM | Ki [40] > 3.98 µM | Ki [41] > 3.98 µM | Ki [42] > 3.98 µM | Ki [43] > 6.31 µM | Ki [44] > 3.98 µM | Ki [45] > 6.31 µM | Ki [46] > 3.98 µM
active: Ki [18] 398 nM | Ki [27] 2.51 µM | Ki [35] 398 nM and 501 nM | Ki [36] 316 nM

Cc1cccc(CNc2cc(-c3c[nH]c4ncccc34)cc(Cl)n2)c1C
active: Ki [47] 1.26 nM | Ki [17] 0.00398 µM | Ki [25] 0.0251 µM | Ki [49] 5.01 nM | Ki [50] 158 nM | Ki [51] 398 nM | Ki [43] 0.501 µM
inactive: Ki [48] > 10 µM

CCOc1c(F)cc(Oc2c(Cl)cnn(Cc3cccc4ccccc34)c2=O)cc1F
active: IC50 [52] 2.37 µM | IC50 [53] 9.19 µM
